# Legend:
# [1] = biological target: T1, Human δ-opioid (DOP) (Homo sapiens, UniProt P41143); test: Radioligand binding, human δ-opioid (DOP) membranes, FlashPlate, [3H]-Bremazocine; details: compound at 10 μM; [3H]-Bremazocine
# T1 construct: purchased Perkin Elmer Biosignal
# In short: (§1)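 Cloned human receptor membranes were coated onto FlashPlate wells and incubated with radioligand and compound (added from a 0.5 mM DMSO daughter plate) for 1 hour at room temperature in the dark. Scintillation counting gave percent inhibition, with DMSO defining total and reference ligand defining non-specific binding.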
# [2] = biological target: T2, Human κ-Opioid (KOP) (Homo sapiens, UniProt P41145); test: Radioligand binding, human κ-opioid (KOP) membranes, filtration, [3H]-Diprenorphine; details: compound at 10 μM, [3H]-Diprenorphine
# T2 construct: purchased Perkin Elmer Biosignal
# In short: (§2)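 Filtration binding on cloned human receptor membranes (1 Unit/well), [125I]-Substance P for NK1 and [3H]-Diprenorphine for KOP, 1 h at room temperature. Filters PEI-presoaked, washed with cold 50 mM Tris-HCl pH 7.4, counted by scintillation; percent inhibition calculated, reference ligand defining non-specific binding.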
# [3] = biological target: T3, Human neurokinin (NK1) (Homo sapiens, UniProt P25103); test: Radioligand binding, human neurokinin NK1 membranes, filtration, [125I]-Substance P; details: compound at 10 μM; [125I]-Substance P
# T3 construct: purchased Perkin Elmer Biosignal
# In short: as §2
# [4] = biological target: T4, Human μ-opioid (MOP) (Homo sapiens, UniProt P35372); test: Radioligand binding, human μ-opioid (MOP) membranes, FlashPlate, [3H]-Naloxone; details: compound at 10 μM; [3H]-Naloxone
# T4 construct: purchased Perkin Elmer Biosignal
# In short: as §1
# [5] = biological target: T5, Human melanocortin (MC5) (Homo sapiens, UniProt P33032); test: Radioligand binding, human melanocortin MC5 membranes, FlashPlate, [125I]-NDP-αMSH; details: compound at 10 μM; [125I]-NDP-αMSH
# T5 construct: purchased Perkin Elmer Biosignal
# In short: as §1
# [6] = biological target: T6, Mouse urotensin (mUR2) (Mus musculus, UniProt Q8VIH9); test: Radioligand binding, mouse urotensin mUR2 membranes, FlashPlate, [125I]-Urotensin II; details: compound at 10 μM; [125I]-Urotensin II
# T6 construct: purchased Perkin Elmer Biosignal
# T6 sequence (Q8VIH9 1-385): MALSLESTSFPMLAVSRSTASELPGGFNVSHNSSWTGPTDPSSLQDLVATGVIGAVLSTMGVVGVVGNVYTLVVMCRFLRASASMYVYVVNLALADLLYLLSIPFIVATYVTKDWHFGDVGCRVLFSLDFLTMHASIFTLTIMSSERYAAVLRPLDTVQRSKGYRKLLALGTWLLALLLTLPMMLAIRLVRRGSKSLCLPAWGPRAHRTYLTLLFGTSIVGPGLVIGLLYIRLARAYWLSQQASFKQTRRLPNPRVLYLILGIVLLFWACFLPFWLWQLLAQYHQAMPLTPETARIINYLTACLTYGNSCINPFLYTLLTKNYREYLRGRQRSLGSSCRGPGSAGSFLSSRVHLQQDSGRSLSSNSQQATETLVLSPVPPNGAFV
# In short: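 Cloned mouse urotensin (mUR2) receptor membranes from Perkin Elmer Biosignal were immobilized in FlashPlate microplates using a proprietary coating. Each well got 19.5 μl buffer, then 0.5 μl of DMSO, reference ligand, or compound. Adding 5 μl of [125I]-Urotensin II, diluted to 5× final concentration in binding buffer, started binding. Plates were sealed with TopSeal-A and incubated 1 hour at room temperature in the dark. Wells were counted for 30 seconds each on a TopCount after a 60-second delay, and percentage inhibition was calculated.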
# [7] = biological target: T7, Human Melanocortin (MC4) (Homo sapiens, UniProt P32245); test: Radioligand binding, human melanocortin MC4 membranes, FlashPlate, [125I]-NDP-αMSH; details: compound at 10 μM; [125I]-NDP-αMSH
# T7 construct: purchased Perkin Elmer Biosignal
# In short: as §1
# [8] = biological target: T8, Human neuropeptide Y (NPY-Y1) (Homo sapiens, UniProt P25929); test: Radioligand binding, human neuropeptide Y NPY-Y1 membranes, FlashPlate, [125I]-PYY; details: compound at 10 μM; [125I]-PYY
# T8 construct: purchased Perkin Elmer Biosignal
# T8 sequence (P25929 1-384): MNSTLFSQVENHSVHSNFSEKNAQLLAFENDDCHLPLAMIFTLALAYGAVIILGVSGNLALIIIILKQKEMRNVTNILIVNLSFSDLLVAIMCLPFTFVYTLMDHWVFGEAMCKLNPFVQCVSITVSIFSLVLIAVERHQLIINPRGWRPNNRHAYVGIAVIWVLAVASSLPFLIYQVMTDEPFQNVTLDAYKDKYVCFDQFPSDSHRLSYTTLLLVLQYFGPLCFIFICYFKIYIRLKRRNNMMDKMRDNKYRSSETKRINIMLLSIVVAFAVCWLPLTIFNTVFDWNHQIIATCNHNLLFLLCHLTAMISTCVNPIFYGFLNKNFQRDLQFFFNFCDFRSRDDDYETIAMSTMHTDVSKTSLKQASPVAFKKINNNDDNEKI
# In short: as §1
# [9] = biological target: T9, Human Melanocortin (MC3) (Homo sapiens, UniProt P41968); test: Radioligand binding, human melanocortin MC3 membranes, FlashPlate, [125I]-NDP-αMSH; details: compound at 10 μM; [125I]-NDP-αMSH
# T9 construct: purchased Perkin Elmer Biosignal
# In short: as §1
# [10] = biological target: T10, Human opioid (ORL1) (Homo sapiens, UniProt P41146); test: Radioligand binding, human opioid ORL1 membranes, FlashPlate, [125I]-Nociceptin; details: compound at 10 μM; [125I]-Nociceptin
# T10 construct: purchased Perkin Elmer Biosignal
# In short: as §1
# [11] = biological target: T11, Human melanin-concentrating hormone (MCH1) (Homo sapiens, UniProt Q99705); test: Radioligand binding, human melanin-concentrating hormone MCH1 membranes, FlashPlate, [125I]-S36057; details: compound at 10 μM; [125I]-S36057
# T11 construct: purchased Perkin Elmer Biosignal
# In short: as §1
# T4 sequence (P35372 whole entry): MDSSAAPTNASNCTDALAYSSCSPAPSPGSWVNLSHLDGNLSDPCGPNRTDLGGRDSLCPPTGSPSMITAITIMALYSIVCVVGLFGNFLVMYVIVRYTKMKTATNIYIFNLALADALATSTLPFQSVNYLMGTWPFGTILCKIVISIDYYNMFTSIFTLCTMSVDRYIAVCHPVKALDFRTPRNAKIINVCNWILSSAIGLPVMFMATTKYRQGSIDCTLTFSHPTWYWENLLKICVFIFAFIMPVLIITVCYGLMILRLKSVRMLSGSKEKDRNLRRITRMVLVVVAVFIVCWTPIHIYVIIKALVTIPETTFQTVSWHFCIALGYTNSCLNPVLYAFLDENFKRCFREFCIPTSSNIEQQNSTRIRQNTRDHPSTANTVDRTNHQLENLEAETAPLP
# T1 sequence (P41143 whole entry): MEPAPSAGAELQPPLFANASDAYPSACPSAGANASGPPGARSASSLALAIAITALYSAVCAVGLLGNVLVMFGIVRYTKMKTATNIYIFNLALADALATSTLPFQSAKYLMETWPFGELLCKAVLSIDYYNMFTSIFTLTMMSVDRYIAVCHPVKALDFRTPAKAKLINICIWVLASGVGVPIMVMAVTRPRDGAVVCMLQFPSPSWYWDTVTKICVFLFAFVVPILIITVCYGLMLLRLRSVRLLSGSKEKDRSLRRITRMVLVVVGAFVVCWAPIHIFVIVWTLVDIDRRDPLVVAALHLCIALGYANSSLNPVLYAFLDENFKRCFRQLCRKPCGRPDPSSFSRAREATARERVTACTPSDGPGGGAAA
# T7 sequence (P32245 whole entry): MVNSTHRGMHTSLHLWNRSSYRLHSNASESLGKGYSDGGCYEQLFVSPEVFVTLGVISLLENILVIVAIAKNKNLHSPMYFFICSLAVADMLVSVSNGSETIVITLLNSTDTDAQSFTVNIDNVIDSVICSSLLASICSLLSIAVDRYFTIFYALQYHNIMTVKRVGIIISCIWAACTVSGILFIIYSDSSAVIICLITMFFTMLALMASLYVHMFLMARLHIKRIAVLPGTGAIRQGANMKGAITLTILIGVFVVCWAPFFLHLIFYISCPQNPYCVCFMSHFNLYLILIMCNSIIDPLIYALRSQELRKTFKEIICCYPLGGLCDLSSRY
# T9 sequence (P41968 whole entry): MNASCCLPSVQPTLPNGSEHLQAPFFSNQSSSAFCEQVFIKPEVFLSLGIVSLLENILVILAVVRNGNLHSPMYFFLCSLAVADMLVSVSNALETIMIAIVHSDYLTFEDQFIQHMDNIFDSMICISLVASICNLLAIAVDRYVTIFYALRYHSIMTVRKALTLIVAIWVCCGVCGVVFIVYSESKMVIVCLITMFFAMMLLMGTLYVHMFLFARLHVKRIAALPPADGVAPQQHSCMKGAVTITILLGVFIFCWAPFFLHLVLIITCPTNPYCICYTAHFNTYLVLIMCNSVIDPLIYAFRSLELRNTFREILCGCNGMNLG
# T10 sequence (P41146 whole entry): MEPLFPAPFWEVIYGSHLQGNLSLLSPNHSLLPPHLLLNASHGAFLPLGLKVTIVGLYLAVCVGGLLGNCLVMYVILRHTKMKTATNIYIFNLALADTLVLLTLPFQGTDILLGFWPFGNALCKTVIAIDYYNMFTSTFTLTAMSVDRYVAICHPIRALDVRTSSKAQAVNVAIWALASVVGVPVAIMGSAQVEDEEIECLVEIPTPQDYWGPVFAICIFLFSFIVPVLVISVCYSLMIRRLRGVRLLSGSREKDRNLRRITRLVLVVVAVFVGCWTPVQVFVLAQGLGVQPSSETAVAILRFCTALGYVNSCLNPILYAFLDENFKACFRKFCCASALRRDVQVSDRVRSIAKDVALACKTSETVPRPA
# T11 sequence (Q99705 whole entry): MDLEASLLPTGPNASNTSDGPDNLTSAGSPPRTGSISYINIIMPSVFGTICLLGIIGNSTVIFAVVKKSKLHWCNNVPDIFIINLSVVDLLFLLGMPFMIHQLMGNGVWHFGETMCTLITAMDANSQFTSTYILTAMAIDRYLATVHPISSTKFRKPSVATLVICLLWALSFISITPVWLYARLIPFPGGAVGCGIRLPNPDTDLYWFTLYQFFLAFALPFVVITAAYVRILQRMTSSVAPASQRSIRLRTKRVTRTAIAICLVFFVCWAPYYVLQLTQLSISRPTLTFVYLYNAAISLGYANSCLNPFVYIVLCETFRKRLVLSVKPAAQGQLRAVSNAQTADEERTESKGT
# T3 sequence (P25103 whole entry): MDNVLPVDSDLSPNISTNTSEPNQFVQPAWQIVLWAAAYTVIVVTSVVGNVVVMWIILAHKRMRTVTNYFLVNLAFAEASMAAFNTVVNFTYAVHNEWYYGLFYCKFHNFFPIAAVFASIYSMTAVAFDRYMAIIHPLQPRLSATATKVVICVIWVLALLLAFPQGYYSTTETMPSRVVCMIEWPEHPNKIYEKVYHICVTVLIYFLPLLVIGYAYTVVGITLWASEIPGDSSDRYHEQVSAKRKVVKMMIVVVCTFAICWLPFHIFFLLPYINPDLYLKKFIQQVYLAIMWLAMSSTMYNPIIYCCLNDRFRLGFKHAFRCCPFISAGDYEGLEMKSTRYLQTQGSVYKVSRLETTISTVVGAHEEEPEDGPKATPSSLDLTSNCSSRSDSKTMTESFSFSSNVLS
# T5 sequence (P33032 whole entry): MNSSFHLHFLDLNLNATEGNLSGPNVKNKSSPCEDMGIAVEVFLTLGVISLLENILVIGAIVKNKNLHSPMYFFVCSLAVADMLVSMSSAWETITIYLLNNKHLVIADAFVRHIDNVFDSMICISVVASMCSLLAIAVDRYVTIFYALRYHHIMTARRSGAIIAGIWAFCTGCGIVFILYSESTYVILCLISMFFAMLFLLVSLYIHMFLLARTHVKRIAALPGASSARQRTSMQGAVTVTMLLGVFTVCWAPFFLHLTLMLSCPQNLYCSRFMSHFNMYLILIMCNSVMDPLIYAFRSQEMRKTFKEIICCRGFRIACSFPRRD
# T2 sequence (P41145 whole entry): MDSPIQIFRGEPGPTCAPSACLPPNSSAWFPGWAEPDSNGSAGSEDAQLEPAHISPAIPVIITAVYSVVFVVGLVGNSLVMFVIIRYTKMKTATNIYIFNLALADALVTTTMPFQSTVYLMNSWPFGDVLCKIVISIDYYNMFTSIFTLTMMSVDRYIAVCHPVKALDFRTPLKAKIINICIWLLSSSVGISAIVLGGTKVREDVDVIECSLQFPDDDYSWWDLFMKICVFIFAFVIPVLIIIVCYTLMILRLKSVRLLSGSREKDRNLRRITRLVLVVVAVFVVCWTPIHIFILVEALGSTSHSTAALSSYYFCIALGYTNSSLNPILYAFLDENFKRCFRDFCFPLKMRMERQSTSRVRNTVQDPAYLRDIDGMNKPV
Structure (SMILES),"A1: inhibition of radioligand binding, human δ-opioid (DOP) [1]","A8: inhibition of radioligand binding, human neurokinin (NK1) [3]","A7: inhibition of radioligand binding, human μ-opioid (MOP) [4]","A5: inhibition of radioligand binding, human melanocortin (MC5) [5]","A11: inhibition of radioligand binding, mouse urotensin (mUR2) [6]","A4: inhibition of radioligand binding, human melanocortin (MC4) [7]","A9: inhibition of radioligand binding, human neuropeptide Y (NPY-Y1) [8]","A3: inhibition of radioligand binding, human melanocortin (MC3) [9]","A10: inhibition of radioligand binding, human opioid (ORL1) [10]","A6: inhibition of radioligand binding, human melanin-concentrating hormone (MCH1) [11]",other results
CSC1OC(COCc2cccc(N)c2)C(O)C(OCc2ccc(Cl)cc2)C1NC(=O)C=Cc1ccccc1 (stereo not drawn) [compound 329],− (“−” indicates less than 50% inhibition at 10 μM),+ (“+” indicates greater than 50% inhibition at 10 μM),− (“−” indicates less than 50% inhibition at 10 μM),− (“−” indicates less than 50% inhibition at 10 μM),− (“−” indicates less than 50% inhibition at 10 μM),− (“−” indicates less than 50% inhibition at 10 μM),− (“−” indicates less than 50% inhibition at 10 μM),− (“−” indicates less than 50% inhibition at 10 μM),− (“−” indicates less than 50% inhibition at 10 μM),− (“−” indicates less than 50% inhibition at 10 μM),"A2: inhibition of radioligand binding, human κ-opioid (KOP) [2]: − (“−” indicates less than 50% inhibition at 10 μM)"
CO[C@H]1[C@H](O)[C@@H](COCc2ccccc2)OC(OCCc2ccccc2)[C@@H]1NC(=O)CCNC(=N)N (stereo partly drawn) [compound 117],–,–,–,–,–,–,–,–,–,–,"A1 radioligand binding, percentage inhibition [1]: − (“−” indicates less than 50% inhibition at 10 μM); A2 radioligand binding, percentage inhibition [2]: + (“+” indicates greater than 50% inhibition at 10 μM); A8 radioligand binding, percentage inhibition [3]: + (“+” indicates greater than 50% inhibition at 10 μM); A7 radioligand binding, percentage inhibition [4]: − (“−” indicates less than 50% inhibition at 10 μM); A5 radioligand binding, percentage inhibition [5]: − (“−” indicates less than 50% inhibition at 10 μM); A11 radioligand binding, percentage inhibition [6]: − (“−” indicates less than 50% inhibition at 10 μM); A4 radioligand binding, percentage inhibition [7]: − (“−” indicates less than 50% inhibition at 10 μM); A9 radioligand binding, percentage inhibition [8]: − (“−” indicates less than 50% inhibition at 10 μM); A3 radioligand binding, percentage inhibition [9]: − (“−” indicates less than 50% inhibition at 10 μM); A10 radioligand binding, percentage inhibition [10]: − (“−” indicates less than 50% inhibition at 10 μM); A6 radioligand binding, percentage inhibition [11]: − (“−” indicates less than 50% inhibition at 10 μM)"
"NCCC(=O)NC1C(OCc2ccc(Cl)cc2)OC(COCc2ccc(Cl)cc2)C(O)C1OCc1ccc2ccccc2c1 (single isomer, unassigned) [compound 482]",− (“−” indicates less than 50% inhibition at 10 μM),+ (“+” indicates greater than 50% inhibition at 10 μM),− (“−” indicates less than 50% inhibition at 10 μM),+ (“+” indicates greater than 50% inhibition at 10 μM),− (“−” indicates less than 50% inhibition at 10 μM),+ (“+” indicates greater than 50% inhibition at 10 μM),− (“−” indicates less than 50% inhibition at 10 μM),+ (“+” indicates greater than 50% inhibition at 10 μM),+ (“+” indicates greater than 50% inhibition at 10 μM),+ (“+” indicates greater than 50% inhibition at 10 μM),"A2: inhibition of radioligand binding, human κ-opioid (KOP) ([2]; 10 µM): − (“−” indicates less than 50% inhibition at 10 μM)"
